As a reminder, the IC50 is the point on the concentration scale where inhibition reaches its midpoint. Read a low IC50 as greater potency.

The source of these data is patent US20160250190A1, “N-METHYL PYRAZOLOANTHRONE FOR TREATMENT OF CANCER” (THE GENERAL HOSPITAL CORPORATION, priority 2013, published 2016).

Molecules are shown by their SMILES. Entries after “also recorded” stand apart in the source; their conditions may differ.

Data set [1] concerns ptD cells. Description: cell cycle distribution by PI staining and flow cytometry in ptD cells. The format is cell-based, human. An excerpt: (§1) This pattern is observed in both cells lines, but is particularly pronounced in OVCAR5 (FIG. 5C).
The test system of data set [2] is OVCAR5 cells. Briefly: cell cycle distribution by PI staining and flow cytometry in OVCAR5 cells. The format is cell-based, human. Conditions: OVCAR5 synchronized by serum deprivation 24 h, 25 uM with 10% serum.
Text: as §1

Data set [3] relates to 300 kinases. The conditions noted are these: 0.5 μM inhibitor, 10 uM ATP; cited from earlier work.
Data set [4] concerns CDKi P15. Description: qPCR expression of CDKi P15. In kind it is cell-based. An excerpt:
(§2) To decipher the mechanism of cell cycle block observed by treatment with M-SP600, the inventors next assessed the expression of the kinases CDKi P15 and P21 by qPCR, since these kinases control G1/S transition.
A general note: Quantitative PCR measures a nucleic acid by following its amplification.

Data set [5] has as its system OVCAR5 and primary ovarian cancer cell lines (ptD, ptH, ptG, PKD1, PKD2). Briefly: MTT assay in a panel of ovarian cancer cell lines. The format is cell-based, human. The conditions noted are these: 72 h, all cell lines. As for the experimental part: (§3) Drug responses were evaluated in the well-established OVCAR5 cancer cell line and a variety of primary ovarian cancer cells lines derived from patient ascites ([…], PKD1, PKD2).

Data set [6] addresses T1, MISR2 (MISRII) (Rattus norvegicus, UniProt Q62893).
T1 construct: UGR tissue is dissected from 14.5d female fetal rats and cultured ex-vivo; from tissue; host or cells: fetal rat urogenital ridge (14.5d female), organ culture
T1 sequence (Q62893 18-557): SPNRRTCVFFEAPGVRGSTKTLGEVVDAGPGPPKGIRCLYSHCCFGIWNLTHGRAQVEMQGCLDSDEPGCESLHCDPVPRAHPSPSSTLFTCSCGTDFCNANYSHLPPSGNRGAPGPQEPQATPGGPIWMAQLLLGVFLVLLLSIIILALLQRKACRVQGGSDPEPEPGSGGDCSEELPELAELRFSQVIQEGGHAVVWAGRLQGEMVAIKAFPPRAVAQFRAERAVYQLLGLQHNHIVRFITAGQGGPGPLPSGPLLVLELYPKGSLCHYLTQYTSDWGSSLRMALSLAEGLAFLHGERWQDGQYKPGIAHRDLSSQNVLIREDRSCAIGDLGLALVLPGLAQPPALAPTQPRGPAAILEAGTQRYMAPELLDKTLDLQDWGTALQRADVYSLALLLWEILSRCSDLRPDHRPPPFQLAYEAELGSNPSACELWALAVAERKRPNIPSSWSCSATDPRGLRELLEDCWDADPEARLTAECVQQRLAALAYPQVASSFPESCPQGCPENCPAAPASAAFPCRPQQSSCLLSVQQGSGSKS
Briefly: rat fetal urogenital ridge (UGR) assay. Conditions: UGR culture, 72 h. As for the experimental part:
UGR tissue is dissected from 14.5d female fetal rats and cultured ex-vivo on a semi solid substrate (agarose droplet on a metal grid) suspended over media at the air/media interface. The UGR from each female is cultured for 72 h in presence of the drugs while the contralateral ridge is cultured in vehicle (DMSO) as a control. The regression of the Mullerian duct, which is specific to MIS activity, is measured in sections of UGR after fixing and embedding.

Data set [7] deals with OVCAR5 cells. Description: MTT assay in OVCAR5 cells. In kind it is cell-based, human. Conditions: for dose of single agent giving virtually complete cell death (95% cell death): 72 h, agent alone; for IC50: Homo sapiens, OVCAR-5, 72 h. As for the experimental part: as §3
On the technique in general: Formazan colour is commonly taken as a measure of viable cells.

Data set [8] concerns ptD primary ovarian cancer cells. Briefly: MTT assay in ptD cells. In kind it is cell-based, human. The conditions noted are these: for IC50: Homo sapiens; for IC50 / dose of single agent giving virtually complete cell death (95% cell death): ptD, 72 h; for dose of single agent giving virtually complete cell death (95% cell death): agent alone. On the procedure:
Drug responses were evaluated in the well-established OVCAR5 cancer cell line and a variety of primary ovarian cancer cells lines derived from patient ascites (ptD, ptH, ptG, PKD1, PKD2).

Data set [9] has as its system OVCAR5 cells xenografted in the flank of nude mice. Briefly: OVCAR5 xenograft in nude mice. The conditions noted are these: 60 mg/kg/day, 5 days on 2 days off for 3 weeks. In kind it is in vivo, mouse. On the procedure:
A longer experiment was subsequently carried out using OVCAR5 cells xenografted at 1×10^6 in the flank of nude mice, which were treated 72 h later in a 5 days on 2 days off schedule for 3 weeks at a dose of 60 mg/kg/day using 3 groups of 5 mice randomly selected.

The test system of data set [10] is CDKi P21. Briefly: qPCR expression of CDKi P21 in ptD cells. In kind it is cell-based, human. Conditions: 25 μM, 2-48 h.
Text: as §2

The test system of data set [11] is JNKs. Conditions: Bennet et al. 2001; cited from earlier work.
Data set [12] has as its system PtD cells xenografted in the flank of nude mice. Briefly: PtD xenograft in nude mice. The conditions noted are these: 30 mg/kg/day for 3 consecutive days. In kind it is in vivo.
Data set [13] deals with c-JUN phosphorylation (canonical downstream target of JNKs). Description: western blot of c-JUN phosphorylation in ptD cells. The format is cell-based, human. Conditions: 25 uM, 30 min. Background: A western blot detects proteins with antibodies after separation by electrophoresis.

For the compound `Cn1nc2c3c(cccc31)C(=O)c1ccccc1-2` [M-SP600, N1-methyl-1,9-pyrazolothrone], in data set [1] (asynchronous ptD cells, 25 uM, 24 h), the cell cycle distribution entry is “marked reduction in cells in S phase accompanied by an accumulation of cells particularly in G1 and less so in G2; also recorded: more pronounced with M-SP600 than SP600”. The cell cycle block result is “causes a G1 block” in [1] (ptD synchronized by serum deprivation 24 h, 25 uM with 10% serum) and “causes a G1 block” in data set [2]. Further, in [3], the “number of kinases inhibited at more than 50%” value was 4. The “expression of P15” value in [4] is “upregulation of P21 and P15”. Further, the “inhibition of cancer cell growth” value in data set [5] is listed as “inhibited”. In addition, the “size of Wolffian ducts” value in data set [6] was “smaller Wolffian ducts”. Besides, the “dose of single agent giving virtually complete cell death (95% cell death)” value in data set [7] and in data set [8] was 50 µM in each case. Also, the figures for the IC50 in [7] and in data set [8] were 12.5 µM and 6.25 µM, respectively. Also, the tumor growth entry in data set [9] (versus control at day 15) is on record as “significantly inhibited”; in data set [9] (versus control at day 15, listed as MSP600, 60 mg/kg/day), “significantly lower than control”; in data set [12] (one week after implant), “strong trend emerged of inhibition of tumor growth”. Moreover, the “expression of P21 by qPCR” value in data set [10] is “induce P21; also recorded: greater for the M-SP600 than the SP600”. Moreover, the “inhibition of JNKs” value in data set [11] is recorded as “does not inhibit JNKs”. The tolerability result in data set [12] was “well tolerated”.

For `Oc1c2ccccc2c2c3c(cccc13)N=N2` [SP600, 1,9-pyrazoloathrone, reference compound], the results for the IC50 in data set [7] and in data set [8] were 12.5 µM and 6.25 µM, respectively. In addition, in data set [12], the tolerability entry was “well tolerated”.

With `COc1cccc2c1C(=O)c1c(O)c3c(c(O)c1C2=O)C[C@@](O)(C(=O)CO)C[C@@H]3O[C@H]1C[C@H](N)[C@H](O)[C@H](C)O1` [DOX, doxorubicin, reference compound], the figures for the “dose of single agent giving virtually complete cell death (95% cell death)” value in [7] and in [8] were 300 µM and “greater than 300 μM”, respectively.

As to `CCOc1nc(NC(=O)Cc2cc(OC)ccc2OC)cc(N)c1C#N` [JNK inhibitor VIII, reference compound], the c-JUN phosphorylation result in data set [13] is given as “inhibited”.

Regarding `CCCS(=O)(=O)Nc1ccc(F)c(C(=O)c2c[nH]c3ncc(-c4ccc(Cl)cc4)cc23)c1F` [Vemurafinib], the “sensitivity of cells to the drug” value in [8] (ptD cells with BRAF V600E mutation) is on record as “exquisitely sensitive”.
